Patent US20080009418A1, “Selective Inhibitors” (Alchemia LTD., priority 2004, published 2008)

How the values were obtained:
Human δ-opioid (DOP) = target: T1, Human δ-opioid (DOP) (Homo sapiens, UniProt P41143); experiment: Radioligand binding, human δ-opioid (DOP) membranes, FlashPlate, [3H]-Bremazocine; conditions: compound at 10 μM, [3H]-Bremazocine; for A1: inhibition of radioligand binding: FlashPlate
T1 construct: purchased Perkin Elmer Biosignal
Outline: (§1)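 Cloned human receptor membranes were coated onto FlashPlate wells and incubated with radioligand and compound (added from a 0.5 mM DMSO daughter plate) for 1 hour at room temperature in the dark. Scintillation counting gave percent inhibition, with DMSO defining total and reference ligand defining non-specific binding.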

Human κ-Opioid (KOP) = target: T2, Human κ-Opioid (KOP) (Homo sapiens, UniProt P41145); experiment: Radioligand binding, human κ-opioid (KOP) membranes, filtration, [3H]-Diprenorphine; conditions: compound at 10 μM, [3H]-Diprenorphine; for A2: inhibition of radioligand binding: filtration
T2 construct: purchased Perkin Elmer Biosignal
T2 sequence (P41145 whole entry): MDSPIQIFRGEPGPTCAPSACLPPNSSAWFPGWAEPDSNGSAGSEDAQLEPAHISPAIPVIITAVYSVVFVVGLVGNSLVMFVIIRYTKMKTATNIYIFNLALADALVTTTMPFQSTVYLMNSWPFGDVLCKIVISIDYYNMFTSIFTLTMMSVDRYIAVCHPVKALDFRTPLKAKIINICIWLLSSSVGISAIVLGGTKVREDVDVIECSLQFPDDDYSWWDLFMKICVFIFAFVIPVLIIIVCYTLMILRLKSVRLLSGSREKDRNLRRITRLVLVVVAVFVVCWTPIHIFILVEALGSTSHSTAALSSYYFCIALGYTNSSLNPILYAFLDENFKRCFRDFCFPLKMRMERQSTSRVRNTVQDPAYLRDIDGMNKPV
Outline: (§2)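 Membranes from cloned human receptors were incubated with compound and radioligand for 1 hour at room temperature. Bound ligand was collected on 0.3% PEI-soaked filters, washed with cold 50 mM Tris-HCl pH 7.4, and counted by scintillation. Percent inhibition was computed against DMSO totals and reference-ligand nonspecific wells.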

Human Melanocortin (MC3) = target: T3, Human Melanocortin (MC3) (Homo sapiens, UniProt P41968); experiment: Radioligand binding, human melanocortin MC3 membranes, FlashPlate, [125I]-NDP-αMSH; conditions: compound at 10 μM, [125I]-NDP-αMSH; for A3: inhibition of radioligand binding: FlashPlate
T3 construct: purchased Perkin Elmer Biosignal
T3 sequence (P41968 whole entry): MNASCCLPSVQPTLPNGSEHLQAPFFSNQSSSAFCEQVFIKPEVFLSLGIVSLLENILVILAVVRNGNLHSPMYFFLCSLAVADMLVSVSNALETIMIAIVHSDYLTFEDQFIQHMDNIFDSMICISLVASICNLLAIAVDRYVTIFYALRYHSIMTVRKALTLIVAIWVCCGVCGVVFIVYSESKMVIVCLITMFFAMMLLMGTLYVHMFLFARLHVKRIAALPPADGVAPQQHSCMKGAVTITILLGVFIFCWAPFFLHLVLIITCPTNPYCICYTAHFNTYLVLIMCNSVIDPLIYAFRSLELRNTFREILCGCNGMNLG
Outline: as §1

Human Melanocortin (MC4) = target: T4, Human Melanocortin (MC4) (Homo sapiens, UniProt P32245); experiment: Radioligand binding, human melanocortin MC4 membranes, FlashPlate, [125I]-NDP-αMSH; conditions: compound at 10 μM, [125I]-NDP-αMSH; for A4: inhibition of radioligand binding: FlashPlate
T4 construct: purchased Perkin Elmer Biosignal
T4 sequence (P32245 whole entry): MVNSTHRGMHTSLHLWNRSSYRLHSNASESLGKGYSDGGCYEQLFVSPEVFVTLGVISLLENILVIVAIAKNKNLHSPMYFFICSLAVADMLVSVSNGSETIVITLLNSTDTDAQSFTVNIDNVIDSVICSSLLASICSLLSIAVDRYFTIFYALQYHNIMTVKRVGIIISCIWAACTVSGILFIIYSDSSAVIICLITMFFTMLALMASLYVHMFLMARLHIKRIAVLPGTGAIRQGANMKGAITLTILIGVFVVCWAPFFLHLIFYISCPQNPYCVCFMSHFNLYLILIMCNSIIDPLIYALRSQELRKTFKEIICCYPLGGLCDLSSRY
Outline: as §1

Human melanocortin (MC5) = target: T5, Human melanocortin (MC5) (Homo sapiens, UniProt P33032); experiment: Radioligand binding, human melanocortin MC5 membranes, FlashPlate, [125I]-NDP-αMSH; conditions: compound at 10 μM, [125I]-NDP-αMSH; for A5: inhibition of radioligand binding: FlashPlate
T5 construct: purchased Perkin Elmer Biosignal
T5 sequence (P33032 whole entry): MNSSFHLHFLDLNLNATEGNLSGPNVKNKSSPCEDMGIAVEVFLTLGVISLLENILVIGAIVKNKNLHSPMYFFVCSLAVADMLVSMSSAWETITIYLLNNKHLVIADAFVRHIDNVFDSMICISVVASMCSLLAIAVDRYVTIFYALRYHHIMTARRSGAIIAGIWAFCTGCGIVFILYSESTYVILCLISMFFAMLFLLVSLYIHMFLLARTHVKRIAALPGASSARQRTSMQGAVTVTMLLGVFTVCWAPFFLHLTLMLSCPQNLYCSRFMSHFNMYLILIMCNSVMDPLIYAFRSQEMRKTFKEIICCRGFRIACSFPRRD
Outline: as §1

[1] = target: T6, Human melanin-concentrating hormone (MCH1) (Homo sapiens, UniProt Q99705); experiment: Radioligand binding, human melanin-concentrating hormone MCH1 membranes, FlashPlate, [125I]-S36057; conditions: compound at 10 μM; for A6: inhibition of radioligand binding: [125I]-S36057, FlashPlate
T6 construct: purchased Perkin Elmer Biosignal
T6 sequence (Q99705 whole entry): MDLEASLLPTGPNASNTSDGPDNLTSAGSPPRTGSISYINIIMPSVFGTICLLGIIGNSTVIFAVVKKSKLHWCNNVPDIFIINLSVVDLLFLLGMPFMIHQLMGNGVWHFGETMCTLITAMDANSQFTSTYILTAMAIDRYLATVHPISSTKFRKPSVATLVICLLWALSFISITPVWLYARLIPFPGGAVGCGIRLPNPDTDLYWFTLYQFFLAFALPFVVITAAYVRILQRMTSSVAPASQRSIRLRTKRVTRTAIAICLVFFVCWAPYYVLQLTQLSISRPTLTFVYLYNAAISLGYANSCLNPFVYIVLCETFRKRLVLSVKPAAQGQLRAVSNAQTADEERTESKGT
Outline: as §1

Human μ-opioid (MOP) = target: T7, Human μ-opioid (MOP) (Homo sapiens, UniProt P35372); experiment: Radioligand binding, human μ-opioid (MOP) membranes, FlashPlate, [3H]-Naloxone; conditions: compound at 10 μM, [3H]-Naloxone; for A7: inhibition of radioligand binding: FlashPlate
T7 construct: purchased Perkin Elmer Biosignal
T7 sequence (P35372 whole entry): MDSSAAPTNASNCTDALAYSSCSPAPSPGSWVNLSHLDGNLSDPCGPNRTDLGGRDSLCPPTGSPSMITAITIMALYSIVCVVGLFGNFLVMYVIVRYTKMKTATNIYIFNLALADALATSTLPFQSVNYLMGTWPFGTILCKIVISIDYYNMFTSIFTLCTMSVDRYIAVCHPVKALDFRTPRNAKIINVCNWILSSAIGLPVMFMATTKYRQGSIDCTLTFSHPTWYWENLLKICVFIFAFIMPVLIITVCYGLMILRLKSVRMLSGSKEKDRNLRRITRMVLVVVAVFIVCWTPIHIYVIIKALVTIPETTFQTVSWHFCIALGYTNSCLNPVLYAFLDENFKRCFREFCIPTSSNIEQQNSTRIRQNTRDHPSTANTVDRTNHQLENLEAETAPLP
Outline: as §1

Human neurokinin (NK1) = target: T8, Human neurokinin (NK1) (Homo sapiens, UniProt P25103); experiment: Radioligand binding, human neurokinin NK1 membranes, filtration, [125I]-Substance P; conditions: compound at 10 μM, [125I]-Substance P; for A8: inhibition of radioligand binding: filtration
T8 construct: purchased Perkin Elmer Biosignal
T8 sequence (P25103 whole entry): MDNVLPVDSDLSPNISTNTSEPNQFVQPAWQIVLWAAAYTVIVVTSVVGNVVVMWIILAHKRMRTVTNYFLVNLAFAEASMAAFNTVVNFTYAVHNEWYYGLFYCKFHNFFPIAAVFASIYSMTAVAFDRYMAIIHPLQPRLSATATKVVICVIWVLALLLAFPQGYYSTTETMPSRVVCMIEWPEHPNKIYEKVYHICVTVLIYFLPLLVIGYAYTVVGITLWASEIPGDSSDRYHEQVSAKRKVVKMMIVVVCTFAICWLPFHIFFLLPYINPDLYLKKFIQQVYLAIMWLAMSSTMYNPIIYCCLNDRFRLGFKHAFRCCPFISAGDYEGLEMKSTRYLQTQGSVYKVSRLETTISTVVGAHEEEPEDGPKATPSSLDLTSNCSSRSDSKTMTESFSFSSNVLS
Outline: as §2

[2] = target: T9, Human neuropeptide Y (NPY-Y1) (Homo sapiens, UniProt P25929); experiment: Radioligand binding, human neuropeptide Y NPY-Y1 membranes, FlashPlate, [125I]-PYY; conditions: compound at 10 μM, [125I]-PYY; for A9: inhibition of radioligand binding: FlashPlate
T9 construct: purchased Perkin Elmer Biosignal
T9 sequence (P25929 1-384): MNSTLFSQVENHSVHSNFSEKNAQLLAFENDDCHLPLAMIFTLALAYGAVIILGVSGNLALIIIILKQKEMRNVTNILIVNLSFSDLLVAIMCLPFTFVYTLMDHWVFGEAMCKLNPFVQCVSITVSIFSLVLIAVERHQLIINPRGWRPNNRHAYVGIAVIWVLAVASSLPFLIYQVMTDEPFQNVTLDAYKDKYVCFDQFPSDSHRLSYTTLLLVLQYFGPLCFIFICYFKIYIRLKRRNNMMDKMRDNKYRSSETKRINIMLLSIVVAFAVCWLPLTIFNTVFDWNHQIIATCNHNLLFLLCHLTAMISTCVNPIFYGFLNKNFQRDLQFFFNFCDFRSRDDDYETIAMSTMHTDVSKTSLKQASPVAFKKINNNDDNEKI
Outline: as §1

Human opioid (ORL1) = target: T10, Human opioid (ORL1) (Homo sapiens, UniProt P41146); experiment: Radioligand binding, human opioid ORL1 membranes, FlashPlate, [125I]-Nociceptin; conditions: compound at 10 μM, [125I]-Nociceptin; for A10: inhibition of radioligand binding: FlashPlate
T10 construct: purchased Perkin Elmer Biosignal
T10 sequence (P41146 whole entry): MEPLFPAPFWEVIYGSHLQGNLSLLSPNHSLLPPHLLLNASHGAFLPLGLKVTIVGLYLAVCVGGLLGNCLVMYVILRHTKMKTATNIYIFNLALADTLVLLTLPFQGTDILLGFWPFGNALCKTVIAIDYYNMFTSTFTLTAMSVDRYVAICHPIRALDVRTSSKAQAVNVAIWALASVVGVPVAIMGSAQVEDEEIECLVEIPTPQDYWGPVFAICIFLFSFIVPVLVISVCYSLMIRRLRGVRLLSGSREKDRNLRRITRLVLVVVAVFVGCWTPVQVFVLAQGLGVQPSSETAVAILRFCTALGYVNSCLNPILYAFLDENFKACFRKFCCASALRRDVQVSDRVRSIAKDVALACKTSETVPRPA
Outline: as §1

Mouse urotensin (mUR2) = target: T11, Mouse urotensin (mUR2) (Mus musculus, UniProt Q8VIH9); experiment: Radioligand binding, mouse urotensin mUR2 membranes, FlashPlate, [125I]-Urotensin II; conditions: compound at 10 μM, [125I]-Urotensin II; for A11: inhibition of radioligand binding: FlashPlate
T11 construct: purchased Perkin Elmer Biosignal
T11 sequence (Q8VIH9 1-385): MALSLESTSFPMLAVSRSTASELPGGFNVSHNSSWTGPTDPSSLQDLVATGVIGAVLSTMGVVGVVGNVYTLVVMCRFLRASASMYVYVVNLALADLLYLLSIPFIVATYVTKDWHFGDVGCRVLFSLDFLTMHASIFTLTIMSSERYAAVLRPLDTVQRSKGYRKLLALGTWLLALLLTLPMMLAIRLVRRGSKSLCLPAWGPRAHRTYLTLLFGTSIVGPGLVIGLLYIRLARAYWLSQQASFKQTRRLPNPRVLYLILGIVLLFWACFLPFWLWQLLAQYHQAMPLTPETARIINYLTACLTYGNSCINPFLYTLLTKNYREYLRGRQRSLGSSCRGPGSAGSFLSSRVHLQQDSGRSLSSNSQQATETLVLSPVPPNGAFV
Outline: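 Cloned mouse urotensin (mUR2) receptor membranes from Perkin Elmer Biosignal were immobilized in FlashPlate microplates using a proprietary coating. Each well got 19.5 μl buffer, then 0.5 μl of DMSO, reference ligand, or compound. Adding 5 μl of [125I]-Urotensin II, diluted to 5× final concentration in binding buffer, started binding. Plates were sealed with TopSeal-A and incubated 1 hour at room temperature in the dark. Wells were counted for 30 seconds each on a TopCount after a 60-second delay, and percentage inhibition was calculated.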

T1 sequence (P41143 whole entry): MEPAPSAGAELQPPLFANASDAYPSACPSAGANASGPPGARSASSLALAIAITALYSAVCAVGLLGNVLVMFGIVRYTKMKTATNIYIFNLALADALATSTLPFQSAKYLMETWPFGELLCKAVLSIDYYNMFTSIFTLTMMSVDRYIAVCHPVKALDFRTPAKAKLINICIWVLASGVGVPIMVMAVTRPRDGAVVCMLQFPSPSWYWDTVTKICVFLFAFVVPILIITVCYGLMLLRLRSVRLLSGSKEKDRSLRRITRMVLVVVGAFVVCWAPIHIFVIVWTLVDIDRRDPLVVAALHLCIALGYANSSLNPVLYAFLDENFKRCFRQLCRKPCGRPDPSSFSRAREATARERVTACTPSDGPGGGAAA

Compound | A1: inhibition of radioligand binding (Human δ-opioid (DOP)) | A2: inhibition of radioligand binding (Human κ-Opioid (KOP)) | A3: inhibition of radioligand binding (Human Melanocortin (MC3)) | A4: inhibition of radioligand binding (Human Melanocortin (MC4)) | A5: inhibition of radioligand binding (Human melanocortin (MC5)) | A6: inhibition of radioligand binding [1] | A7: inhibition of radioligand binding (Human μ-opioid (MOP)) | A8: inhibition of radioligand binding (Human neurokinin (NK1)) | A9: inhibition of radioligand binding [2] | A10: inhibition of radioligand binding (Human opioid (ORL1)) | A11: inhibition of radioligand binding (Mouse urotensin (mUR2)) | other results
COCC1OC(OCc2ccc3ccccc3c2)C(NC(=O)CCN)C(OCc2ccc(-c3ccccc3)cc2)C1O (stereo not drawn) [compound 243] | − (“−” indicates less than 50% inhibition at 10 μM) | − (“−” indicates less than 50% inhibition at 10 μM) | − (“−” indicates less than 50% inhibition at 10 μM) | + (“+” indicates greater than 50% inhibition at 10 μM) | + (“+” indicates greater than 50% inhibition at 10 μM) | − (“−” indicates less than 50% inhibition at 10 μM) | − (“−” indicates less than 50% inhibition at 10 μM) | + (“+” indicates greater than 50% inhibition at 10 μM) | − (“−” indicates less than 50% inhibition at 10 μM) | − (“−” indicates less than 50% inhibition at 10 μM) | − (“−” indicates less than 50% inhibition at 10 μM) | –
CO[C@H]1[C@H](O)[C@@H](COCc2cccc(O)c2)OC(OCc2ccccc2)[C@@H]1NC(=O)CCCNC(=N)N (stereo partly drawn) [compound 154] | – | – | – | – | – | – | – | – | – | – | – | A1 radioligand binding, percentage inhibition (Human δ-opioid (DOP)): − (“−” indicates less than 50% inhibition at 10 μM); A2 radioligand binding, percentage inhibition (Human κ-Opioid (KOP)): − (“−” indicates less than 50% inhibition at 10 μM); A3 radioligand binding, percentage inhibition (Human Melanocortin (MC3)): − (“−” indicates less than 50% inhibition at 10 μM); A4 radioligand binding, percentage inhibition (Human Melanocortin (MC4)): − (“−” indicates less than 50% inhibition at 10 μM); A5 radioligand binding, percentage inhibition (Human melanocortin (MC5)): − (“−” indicates less than 50% inhibition at 10 μM); A6 radioligand binding, percentage inhibition ([1]; [125I]-S36057): − (“−” indicates less than 50% inhibition at 10 μM); A7 radioligand binding, percentage inhibition (Human μ-opioid (MOP)): − (“−” indicates less than 50% inhibition at 10 μM); A8 radioligand binding, percentage inhibition (Human neurokinin (NK1)): + (“+” indicates greater than 50% inhibition at 10 μM); A9 radioligand binding, percentage inhibition [2]: − (“−” indicates less than 50% inhibition at 10 μM); A10 radioligand binding, percentage inhibition (Human opioid (ORL1)): − (“−” indicates less than 50% inhibition at 10 μM); A11 radioligand binding, percentage inhibition (Mouse urotensin (mUR2)): − (“−” indicates less than 50% inhibition at 10 μM)
COCC1OC(OCCc2ccccc2)C(NC(=O)CN)C(OCc2ccc3ccccc3c2)C1O (stereo not drawn) [compound 225] | − (“−” indicates less than 50% inhibition at 10 μM) | − (“−” indicates less than 50% inhibition at 10 μM) | − (“−” indicates less than 50% inhibition at 10 μM) | − (“−” indicates less than 50% inhibition at 10 μM) | − (“−” indicates less than 50% inhibition at 10 μM) | − (“−” indicates less than 50% inhibition at 10 μM) | − (“−” indicates less than 50% inhibition at 10 μM) | + (“+” indicates greater than 50% inhibition at 10 μM) | − (“−” indicates less than 50% inhibition at 10 μM) | − (“−” indicates less than 50% inhibition at 10 μM) | − (“−” indicates less than 50% inhibition at 10 μM) | –
